Among the data in US6723753B2, “Substituted n-benzyl-n-phenyl aminoalcohol compounds useful for inhibiting cholesteryl ester transfer protein activity” (Pharmacia Corporation, priority 2002, dated 2004) are IC50 values, retold here.

In general, pIC50 refers to −log10 of the IC50, conventionally taken in molar units.

pIC50: −log10 of the molar value.

The target of the first assay is T1, CETP (Homo sapiens, UniProt P11597).
T1 sequence (P11597 18-493): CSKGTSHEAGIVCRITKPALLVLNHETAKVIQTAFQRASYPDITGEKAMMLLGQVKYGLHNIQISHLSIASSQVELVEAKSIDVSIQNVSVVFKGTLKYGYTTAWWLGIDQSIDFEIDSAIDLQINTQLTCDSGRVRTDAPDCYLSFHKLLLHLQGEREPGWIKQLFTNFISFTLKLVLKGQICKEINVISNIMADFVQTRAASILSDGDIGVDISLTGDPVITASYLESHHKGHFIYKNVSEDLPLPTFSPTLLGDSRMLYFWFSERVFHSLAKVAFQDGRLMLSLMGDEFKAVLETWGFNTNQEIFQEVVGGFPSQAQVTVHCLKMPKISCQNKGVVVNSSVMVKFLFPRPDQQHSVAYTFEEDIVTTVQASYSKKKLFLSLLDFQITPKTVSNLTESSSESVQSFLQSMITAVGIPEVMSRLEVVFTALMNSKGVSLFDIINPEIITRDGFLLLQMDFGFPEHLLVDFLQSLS
Description: Assay of CETP Inhibition using Purified Components (Reconstituted Buffer Assay). It counts as biochemical. Also on record: made in house; host or cells: CHO cells (serum-free conditioned medium). To be noted: IC50, Inhibition of CETP activity in reconstituted buffer assay; transfer of [3H]CE from HDL to LDL. In outline:
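Purified human recombinant CETP from transfected CHO cells was incubated with [^3H]CE-labeled HDL donor and LDL acceptor in Tris pH 7.4/NaCl/EDTA/1% BSA buffer for 2 h at 37 °C. LDL was then precipitated with dextran sulfate/MgCl2, filtered, and counted by liquid scintillation to give IC50 for CE transfer.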
In turn, `OC(CN(Cc1cccc(-c2ncccc2C(F)(F)F)c1)c1cccc(Oc2ccccc2)c1)C(F)(F)F` (stereo not shown) [Example 588, 3-[(3-phenoxyphenyl)[[3-[(3-trifluoromethyl)-2-pyridinyl]phenyl]methyl]amino]-1,1,1-trifluoro-2-propanol] gave a pIC50 of 5.39.

The assay is the same for the next values; noted with them: Inhibition of CETP activity in reconstituted buffer assay; transfer of [3H]CE from HDL to LDL; read-out: IC50.
On to `O=S(=O)(Nc1cccc(N(Cc2cccc(OC(F)(F)C(F)F)c2)CC(O)C(F)(F)F)c1)c1ccccc1` (stereo not shown) [Example 529], for which the pIC50 is 4.31.

Turning to `Cc1cccc(S(=O)(=O)Nc2cccc(N(Cc3cccc(OC(F)(F)C(F)F)c3)CC(O)C(F)(F)F)c2)c1` (stereo not shown) [Example 530], the pIC50 was less than 4.30.

For `O=S(=O)(Nc1cccc(N(Cc2cccc(OC(F)(F)C(F)F)c2)CC(O)C(F)(F)F)c1)c1cccc(C(F)(F)F)c1` (stereo not shown) [Example 531], the pIC50 is less than 4.30. For the molecule `O=[N+]([O-])c1cccc(S(=O)(=O)Nc2cccc(N(Cc3cccc(OC(F)(F)C(F)F)c3)CC(O)C(F)(F)F)c2)c1` (stereo not shown) [Example 532], the pIC50 is less than 4.30.

Consider `O=S(=O)(Nc1cccc(N(Cc2cccc(OC(F)(F)C(F)F)c2)CC(O)C(F)(F)F)c1)c1ccc(F)c(Cl)c1` (stereo not shown) [Example 533], for which the pIC50 is less than 4.30. Still for that read-out and setting: the same measure for `CC(C)S(=O)(=O)Nc1cccc(N(Cc2cccc(OC(F)(F)C(F)F)c2)CC(O)C(F)(F)F)c1` (stereo not shown) [Example 534]: less than 4.30; for `O=C(Nc1cccc(N(Cc2cccc(OC(F)(F)C(F)F)c2)CC(O)C(F)(F)F)c1)c1ccc(F)cc1` (stereo not shown) [Example 535, 4-fluoro-N-[3-[[[3-(1,1,2,2-tetrafluoroethoxy)phenyl]methyl](3,3,3-trifluoro-2-hydroxypropyl)amino]phenyl]benzamide]: less than 4.30; for `O=C(Nc1cccc(N(Cc2cccc(OC(F)(F)C(F)F)c2)CC(O)C(F)(F)F)c1)c1ccccc1` (stereo not shown) [Example 536]: less than 4.30.

Consider `COc1cccc(C(=O)Nc2cccc(N(Cc3cccc(OC(F)(F)C(F)F)c3)CC(O)C(F)(F)F)c2)c1` (stereo not shown) [Example 537], for which the pIC50 was less than 4.30.

As for `CC(C)COC(=O)Nc1cccc(N(Cc2cccc(OC(F)(F)C(F)F)c2)CC(O)C(F)(F)F)c1` (stereo not shown) [Example 538], the pIC50 is less than 4.30. Still for that read-out and setting: the same measure for `O=C(Nc1cccc(N(Cc2cccc(OC(F)(F)C(F)F)c2)CC(O)C(F)(F)F)c1)c1cccnc1` (stereo not shown) [Example 539]: less than 4.30; for `CC(C)C(=O)Nc1cccc(N(Cc2cccc(OC(F)(F)C(F)F)c2)CC(O)C(F)(F)F)c1` (stereo not shown) [Example 540]: less than 4.30. As for `CC(C)CNc1cccc(N(Cc2cccc(OC(F)(F)C(F)F)c2)CC(O)C(F)(F)F)c1` (stereo not shown) [Example 541], the negative-log IC50 (pIC50) was 6.01.

In the case of `OC(CN(Cc1cccc(OC(F)(F)C(F)F)c1)c1cccc(NCc2ccccc2)c1)C(F)(F)F` (stereo not shown) [Example 542], the pIC50 was 5.62. The same measure, in the same setting: the figure for `OC(CN(Cc1cccc(OC(F)(F)C(F)F)c1)c1cccc(NCc2ccc(F)cc2)c1)C(F)(F)F` (stereo not shown) [Example 543] is 5.57; for `OC(CN(Cc1cccc(OC(F)(F)C(F)F)c1)c1cccc(NCc2cccc(OC(F)(F)C(F)F)c2)c1)C(F)(F)F` (stereo not shown) [Example 544] it is 5.64. Same read-out and setting: the same measure for `O=C(Nc1ccc(F)cc1)Nc1cccc(N(Cc2cccc(OC(F)(F)C(F)F)c2)CC(O)C(F)(F)F)c1` (stereo not shown) [Example 545, N-(4-fluorophenyl)-N′-[3-[[[3-(1,1,2,2-tetrafluoroethoxy)phenyl]methyl]-(3,3,3-trifluoro-2-hydroxypropyl)amino]phenyl]urea]: less than 4.30; for `O=C(Nc1ccccc1)Nc1cccc(N(Cc2cccc(OC(F)(F)C(F)F)c2)CC(O)C(F)(F)F)c1` (stereo not shown) [Example 546]: less than 4.30; for `COc1cccc(NC(=O)Nc2cccc(N(Cc3cccc(OC(F)(F)C(F)F)c3)CC(O)C(F)(F)F)c2)c1` (stereo not shown) [Example 547]: less than 4.30. As for `O=C(Nc1cccc(N(Cc2cccc(OC(F)(F)C(F)F)c2)CC(O)C(F)(F)F)c1)Nc1cccc(C(F)(F)F)c1` (stereo not shown) [Example 548], the pIC50 is less than 4.30.

Consider `CC(C)NC(=O)Nc1cccc(N(Cc2cccc(OC(F)(F)C(F)F)c2)CC(O)C(F)(F)F)c1` (stereo not shown) [Example 549], for which the pIC50 was less than 4.30. Same read-out and setting: the same measure for `OC(CN(Cc1cccc(OC(F)(F)C(F)F)c1)c1cccc(-c2cc(C(F)(F)F)cc(C(F)(F)F)c2)c1)C(F)(F)F` (stereo not shown) [Example 551]: 5.00; for `CSc1ccc(-c2cccc(N(Cc3cccc(OC(F)(F)C(F)F)c3)CC(O)C(F)(F)F)c2)cc1` (stereo not shown) [Example 553]: 5.32. On to `COc1c(Cl)cc(-c2cccc(N(Cc3cccc(OC(F)(F)C(F)F)c3)CC(O)C(F)(F)F)c2)cc1Cl` (stereo not shown) [Example 555], for which the negative logarithm of the IC50 (pIC50) was 5.60. On the same count and under the same terms, the same measure for `OC(CN(Cc1cccc(OC(F)(F)C(F)F)c1)c1cccc(-c2ccc(Cl)c(Cl)c2)c1)C(F)(F)F` (stereo not shown) [Example 561]: 5.74; for `COc1ccc(-c2cccc(N(Cc3cccc(OC(F)(F)C(F)F)c3)CC(O)C(F)(F)F)c2)cc1C` (stereo not shown) [Example 562]: 5.68; for `Cc1cc(-c2cccc(N(Cc3cccc(OC(F)(F)C(F)F)c3)CC(O)C(F)(F)F)c2)cc(C)c1N(C)C` (stereo not shown) [Example 563]: less than 4.30. Same read-out and setting: the figure for `OC(CN(Cc1cccc(OC(F)(F)C(F)F)c1)c1cccc(-c2ccc(Cl)cc2)c1)C(F)(F)F` (stereo not shown) [Example 565] is 5.82; for `Cc1ccc(-c2cccc(N(Cc3cccc(OC(F)(F)C(F)F)c3)CC(O)C(F)(F)F)c2)cc1` (stereo not shown) [Example 566] it is 5.57. On the same count and under the same terms, the figure for `OC(CN(Cc1cccc(OC(F)(F)C(F)F)c1)c1cccc(-c2ccc(Cl)cc2Cl)c1)C(F)(F)F` (stereo not shown) [Example 567] is 6.26; for `OC(CN(Cc1cccc(OC(F)(F)C(F)F)c1)c1cccc(-c2ccc(F)cc2)c1)C(F)(F)F` (stereo not shown) [Example 568] it is 5.85. `Cc1cc(-c2cccc(N(Cc3cccc(OC(F)(F)C(F)F)c3)CC(O)C(F)(F)F)c2)ccc1F` (stereo not shown) [Example 569]: the negative-log IC50 (pIC50) was 5.92. The same measure, in the same setting: the figure for `OC(CN(Cc1cccc(OC(F)(F)C(F)F)c1)c1cccc(-c2ccccc2C(F)(F)F)c1)C(F)(F)F` (stereo not shown) [Example 570] is 5.74; for `COc1cccc(-c2cccc(N(Cc3cccc(OC(F)(F)C(F)F)c3)CC(O)C(F)(F)F)c2)c1` (stereo not shown) [Example 571] it is 5.80. The same measure, in the same setting: the same measure for `Nc1cccc(-c2cccc(N(Cc3cccc(OC(F)(F)C(F)F)c3)CC(O)C(F)(F)F)c2)c1` (stereo not shown) [Example 572]: 5.00; for `O=C(O)c1ccc(-c2cccc(N(Cc3cccc(OC(F)(F)C(F)F)c3)CC(O)C(F)(F)F)c2)cc1` (stereo not shown) [Example 573]: less than 4.30. Still for that read-out and setting: the same measure for `CC(C)(C)c1ccc(-c2cccc(N(Cc3cccc(OC(F)(F)C(F)F)c3)CC(O)C(F)(F)F)c2)cc1` (stereo not shown) [Example 574]: 4.74. Turning to `CS(=O)(=O)c1ccc(-c2cccc(N(Cc3cccc(OC(F)(F)C(F)F)c3)CC(O)C(F)(F)F)c2)cc1` (stereo not shown) [Example 575], the pIC50 is less than 4.30. Still for that read-out and setting: the same measure for `N#Cc1cccc(N(Cc2cccc(OC(F)(F)C(F)F)c2)CC(O)C(F)(F)F)c1` (stereo not shown) [Example 576, 3-[[[3-(1,1,2,2-tetrafluoroethoxy)phenyl]methyl](3,3,3-trifluoro-2-hydroxypropyl)amino]benzonitrile]: 5.19; for `OC(CN(Cc1cccc(OC(F)(F)C(F)F)c1)c1cccc(-c2nn[nH]n2)c1)C(F)(F)F` (stereo not shown) [Example 577, 3-[[[3-(1,1,2,2-tetrafluoroethoxy)phenyl]methyl][3-(1H-tetrazol-5-yl)phenyl]amino]-1,1,1-trifluoro-2-propanol]: less than 4.30; for `Cc1cc(C(=O)c2cccc(N(Cc3cccc(OC(F)(F)C(F)F)c3)CC(O)C(F)(F)F)c2)ccc1F` (stereo not shown) [Example 578, (4-Fluoro-3-methylphenyl) [3-[[[(1,1,2,2-tetrafluoroethoxy)phenyl]methyl](3,3,3-trifluoro-2-hydroxypropyl)amino]phenyl]methanone]: 6.12. Same read-out and setting: the same measure for `O=C(c1ccccc1)c1cccc(N(Cc2cccc(OC(F)(F)C(F)F)c2)CC(O)C(F)(F)F)c1` (stereo not shown) [Example 579]: 5.74; for `O=C(c1ccc(F)cc1)c1cccc(N(Cc2cccc(OC(F)(F)C(F)F)c2)CC(O)C(F)(F)F)c1` (stereo not shown) [Example 580]: 5.64. For `O=C(c1cccc(N(Cc2cccc(OC(F)(F)C(F)F)c2)CC(O)C(F)(F)F)c1)C1CCCC1` (stereo not shown) [Example 581], the pIC50 was 6.06. Still for that read-out and setting: the figure for `CC(C)C(=O)c1cccc(N(Cc2cccc(OC(F)(F)C(F)F)c2)CC(O)C(F)(F)F)c1` (stereo not shown) [Example 582] is 5.85; for `OC(c1ccccc1)c1cccc(N(Cc2cccc(OC(F)(F)C(F)F)c2)CC(O)C(F)(F)F)c1` (stereo not drawn) [Example 583, α-Phenyl-3-[[[3-(1,1,2,2-tetrafluoroethoxy)phenyl]methyl]](3,3,3-trifluoro-2-hydroxypropyl)benzenemethanol] it is 5.19; for `CCOC(=O)c1cccc(N(Cc2cccc(OC(F)(F)F)c2)CC(O)C(F)(F)F)c1` (stereo not shown) [Example 585, Ethyl 3-[(3,3,3-trifluoro-2-hydroxypropyl)[[(3-trifluoromethoxy)phenyl]methyl]amino]benzoate] it is 5.24. The same measure, in the same setting: the figure for `O=C(O)c1cccc(N(Cc2cccc(OC(F)(F)F)c2)CC(O)C(F)(F)F)c1` (stereo not shown) [Example 586] is less than 4.30.
